Laboratory results reported in ChEMBL document CHEMBL3885861, “Open TG-GATES”.

Species: Rattus norvegicus
Experiment: Open TG-GATES - Regimen: Daily Repeat
Assay type: toxicity, organism-based, Sprague-Dawley
Set-up: regimen Daily Repeat, gender Male, age 6 weeks
Conditions: in vivo, po, route gavage; for APTT / Bas / Eos / Fbg / Hb / Ht / Lym / MCH / MCHC / MCV / Mono / Neu / PT / Plat / RBC / Ret / WBC: tissue Blood; for KIDNEY_L / KIDNEY_R / KIDNEY_TOTAL: tissue Kidney; for LIVER: tissue Liver; for A/G / ALP / ALT / AST / BUN / CRE / Ca / Cl / DBIL / GLC / IP / K / LDH / Na / PL / RALB / TBIL / TC / TG / TP / gamma-GTP: tissue Plasma
[1] = 150 mg/kg, 72 h, dose level Middle, time 3 day
[2] = 150 mg/kg, […], dose level Middle, time 7 day
[3] = 150 mg/kg, […], dose level Middle, time 14 day
[4] = 150 mg/kg, […], dose level Middle, time 28 day
[5] = 500 mg/kg, 72 h, dose level High, time 3 day
[6] = 500 mg/kg, […], dose level High, time 7 day
[7] = 500 mg/kg, […], dose level High, time 14 day
[8] = 500 mg/kg, […], dose level High, time 28 day

## CN1C(=O)CCS(=O)(=O)C1c1ccc(Cl)cc1 (centres undefined) [CHLORMEZANONE]
[1]
  TERMINAL_BW: 226.1 g
  APTT: 15.7 s
  Bas: 0%
  Eos: 1%
  Fbg: 296.4 mg/dL
  Hb: 13.5 g/dL
  Ht: 39.4%
  Lym: 76%
  MCH: 21.8 pg
  MCHC: 34.1%
  MCV: 63.8 fL
  Mono: 2.8%
  Neu: 19.4%
  PT: 11.4 s
  Plat: 123.4 x10_4/uL
  RBC: 618 x10_4/ul
  Ret: 6.2%
  WBC: 86.7 x10_2/uL
  KIDNEY_L: 0.9 g
  KIDNEY_R: 0.9 g
  KIDNEY_TOTAL: 1.8 g
  LIVER: 13 g
  A/G: 0.9
  ALP: 1825 IU/L
  ALT: 52.2 IU/L
  AST: 69 IU/L
  BUN: 15.4 mg/dL
  CRE: 0.2 mg/dL
  Ca: 11.2 mg/dL
  Cl: 106.6 meq/L
  DBIL: 0.014 mg/dL
  GLC: 179.6 mg/dL
  IP: 7.1 mg/dL
  K: 4.5 meq/L
  LDH: 74.6 IU/L
  Na: 143 meq/L
  PL: 144 mg/dL
  RALB: 2.8 g/dL
  TBIL: 0.026 mg/dL
  TC: 80.4 mg/dL
  TG: 94.6 mg/dL
  TP: 5.9 g/dL
  gamma-GTP: 1.4 IU/L
[2]
  TERMINAL_BW: 265.5 g
  APTT: 17 s
  Bas: 0%
  Eos: 0.8%
  Fbg: 302.2 mg/dL
  Hb: 13.2 g/dL
  Ht: 39.4%
  Lym: 78.2%
  MCH: 21.3 pg
  MCHC: 33.5%
  MCV: 63.4 fL
  Mono: 3%
  Neu: 18%
  PT: 11.5 s
  Plat: 129.2 x10_4/uL
  RBC: 621 x10_4/ul
  Ret: 6.4%
  WBC: 79.7 x10_2/uL
  KIDNEY_L: 1 g
  KIDNEY_R: 1 g
  KIDNEY_TOTAL: 2 g
  LIVER: 14.4 g
  A/G: 0.9
  ALP: 1471.4 IU/L
  ALT: 46.2 IU/L
  AST: 63.6 IU/L
  BUN: 16.6 mg/dL
  CRE: 0.2 mg/dL
  Ca: 11.5 mg/dL
  Cl: 107.8 meq/L
  DBIL: 0.014 mg/dL
  GLC: 193.2 mg/dL
  IP: 6.9 mg/dL
  K: 4.2 meq/L
  LDH: 71.2 IU/L
  Na: 143.8 meq/L
  PL: 142.2 mg/dL
  RALB: 2.8 g/dL
  TBIL: 0.02 mg/dL
  TC: 80.6 mg/dL
  TG: 87 mg/dL
  TP: 6 g/dL
  gamma-GTP: 1.2 IU/L
[3]
  TERMINAL_BW: 313.6 g
  APTT: 19.7 s
  Bas: 0%
  Eos: 0.8%
  Fbg: 306.2 mg/dL
  Hb: 14 g/dL
  Ht: 40.1%
  Lym: 80%
  MCH: 21 pg
  MCHC: 34.8%
  MCV: 60.3 fL
  Mono: 2%
  Neu: 16.2%
  PT: 11.6 s
  Plat: 118.9 x10_4/uL
  RBC: 665.2 x10_4/ul
  Ret: 4.2%
  WBC: 102.9 x10_2/uL
  KIDNEY_L: 1.2 g
  KIDNEY_R: 1.2 g
  KIDNEY_TOTAL: 2.4 g
  LIVER: 15.9 g
  A/G: 0.8
  ALP: 1404.2 IU/L
  ALT: 52.2 IU/L
  AST: 63.4 IU/L
  BUN: 17.2 mg/dL
  CRE: 0.2 mg/dL
  Ca: 11.3 mg/dL
  Cl: 106.8 meq/L
  DBIL: 0.006 mg/dL
  GLC: 188.2 mg/dL
  IP: 7 mg/dL
  K: 4.3 meq/L
  LDH: 76.6 IU/L
  Na: 142.8 meq/L
  PL: 136.8 mg/dL
  RALB: 2.9 g/dL
  TBIL: 0.052 mg/dL
  TC: 74.4 mg/dL
  TG: 74.4 mg/dL
  TP: 6.3 g/dL
  gamma-GTP: 1 IU/L
[4]
  TERMINAL_BW: 389.8 g
  APTT: 17.9 s
  Bas: 0%
  Eos: 1%
  Fbg: 281 mg/dL
  Hb: 14.5 g/dL
  Ht: 41.2%
  Lym: 78.8%
  MCH: 19.7 pg
  MCHC: 35.3%
  MCV: 55.7 fL
  Mono: 2.2%
  Neu: 16.8%
  PT: 11.9 s
  Plat: 105.4 x10_4/uL
  RBC: 741.2 x10_4/ul
  Ret: 2.8%
  WBC: 97.2 x10_2/uL
  KIDNEY_L: 1.3 g
  KIDNEY_R: 1.3 g
  KIDNEY_TOTAL: 2.5 g
  LIVER: 18.1 g
  A/G: 0.9
  ALP: 1029.8 IU/L
  ALT: 46 IU/L
  AST: 58 IU/L
  BUN: 16.8 mg/dL
  CRE: 0.3 mg/dL
  Ca: 10.7 mg/dL
  Cl: 105.8 meq/L
  DBIL: 0.01 mg/dL
  GLC: 190.4 mg/dL
  IP: 5.8 mg/dL
  K: 4.1 meq/L
  LDH: 63.4 IU/L
  Na: 142.8 meq/L
  PL: 153.8 mg/dL
  RALB: 2.9 g/dL
  TBIL: 0.058 mg/dL
  TC: 83.4 mg/dL
  TG: 93.6 mg/dL
  TP: 6.4 g/dL
  gamma-GTP: 1 IU/L
[5]
  TERMINAL_BW: 218.1 g
  APTT: 22.2 s
  Bas: 0%
  Eos: 1%
  Fbg: 285.2 mg/dL
  Hb: 13.2 g/dL
  Ht: 38.9%
  Lym: 75.2%
  MCH: 21.2 pg
  MCHC: 33.9%
  MCV: 62.8 fL
  Mono: 3.2%
  Neu: 20.2%
  PT: 11.4 s
  Plat: 115.7 x10_4/uL
  RBC: 620.2 x10_4/ul
  Ret: 5.3%
  WBC: 90.9 x10_2/uL
  KIDNEY_L: 0.9 g
  KIDNEY_R: 0.9 g
  KIDNEY_TOTAL: 1.9 g
  LIVER: 13.5 g
  A/G: 0.9
  ALP: 1900.8 IU/L
  ALT: 60.6 IU/L
  AST: 77.2 IU/L
  BUN: 12.6 mg/dL
  CRE: 0.2 mg/dL
  Ca: 10.8 mg/dL
  Cl: 107.2 meq/L
  DBIL: 0.02 mg/dL
  GLC: 179.4 mg/dL
  IP: 6.9 mg/dL
  K: 4.3 meq/L
  LDH: 101.4 IU/L
  Na: 142 meq/L
  PL: 157.6 mg/dL
  RALB: 2.6 g/dL
  TBIL: 0.05 mg/dL
  TC: 84.6 mg/dL
  TG: 99.4 mg/dL
  TP: 5.6 g/dL
  gamma-GTP: 1.6 IU/L
[6]
  TERMINAL_BW: 254.1 g
  APTT: 22 s
  Bas: 0%
  Eos: 0.8%
  Fbg: 341.2 mg/dL
  Hb: 12.6 g/dL
  Ht: 37.3%
  Lym: 70.4%
  MCH: 20.9 pg
  MCHC: 33.9%
  MCV: 61.5 fL
  Mono: 3.2%
  Neu: 24.8%
  PT: 11.5 s
  Plat: 147.1 x10_4/uL
  RBC: 606.6 x10_4/ul
  Ret: 6.9%
  WBC: 116.2 x10_2/uL
  KIDNEY_L: 1 g
  KIDNEY_R: 1 g
  KIDNEY_TOTAL: 2 g
  LIVER: 16 g
  A/G: 0.9
  ALP: 1196.8 IU/L
  ALT: 48.2 IU/L
  AST: 59.8 IU/L
  BUN: 16.6 mg/dL
  CRE: 0.2 mg/dL
  Ca: 11.7 mg/dL
  Cl: 106 meq/L
  DBIL: 0.016 mg/dL
  GLC: 202.2 mg/dL
  IP: 7 mg/dL
  K: 4.2 meq/L
  LDH: 96.2 IU/L
  Na: 143.6 meq/L
  PL: 144.8 mg/dL
  RALB: 3 g/dL
  TBIL: 0.032 mg/dL
  TC: 80.6 mg/dL
  TG: 70.2 mg/dL
  TP: 6.3 g/dL
  gamma-GTP: 1.8 IU/L
[7]
  TERMINAL_BW: 312.8 g
  APTT: 24.3 s
  Bas: 0%
  Eos: 0.6%
  Fbg: 314.6 mg/dL
  Hb: 13.4 g/dL
  Ht: 38.7%
  Lym: 76.8%
  MCH: 20.6 pg
  MCHC: 34.8%
  MCV: 59.4 fL
  Mono: 3.6%
  Neu: 18.2%
  PT: 12 s
  Plat: 122.7 x10_4/uL
  RBC: 651.4 x10_4/ul
  Ret: 6.4%
  WBC: 112.6 x10_2/uL
  KIDNEY_L: 1.2 g
  KIDNEY_R: 1.2 g
  KIDNEY_TOTAL: 2.4 g
  LIVER: 19 g
  A/G: 0.9
  ALP: 1377.8 IU/L
  ALT: 57.2 IU/L
  AST: 62.4 IU/L
  BUN: 16.4 mg/dL
  CRE: 0.2 mg/dL
  Ca: 11.4 mg/dL
  Cl: 106 meq/L
  DBIL: 0.018 mg/dL
  GLC: 195.6 mg/dL
  IP: 7.1 mg/dL
  K: 4.2 meq/L
  LDH: 122.6 IU/L
  Na: 143.8 meq/L
  PL: 149 mg/dL
  RALB: 2.9 g/dL
  TBIL: 0.084 mg/dL
  TC: 75 mg/dL
  TG: 88 mg/dL
  TP: 6.4 g/dL
  gamma-GTP: 2 IU/L
[8]
  TERMINAL_BW: 364.7 g
  APTT: 28.5 s
  Bas: 0%
  Eos: 1.2%
  Fbg: 286.4 mg/dL
  Hb: 13 g/dL
  Ht: 37.8%
  Lym: 77%
  MCH: 20.2 pg
  MCHC: 34.5%
  MCV: 58.5 fL
  Mono: 1.8%
  Neu: 19.6%
  PT: 12.6 s
  Plat: 119.4 x10_4/uL
  RBC: 646.6 x10_4/ul
  Ret: 7.6%
  WBC: 126.7 x10_2/uL
  KIDNEY_L: 1.3 g
  KIDNEY_R: 1.3 g
  KIDNEY_TOTAL: 2.5 g
  LIVER: 20.4 g
  A/G: 0.8
  ALP: 1039.2 IU/L
  ALT: 55.2 IU/L
  AST: 59.6 IU/L
  BUN: 16.8 mg/dL
  CRE: 0.3 mg/dL
  Ca: 10.6 mg/dL
  Cl: 106.4 meq/L
  DBIL: 0.014 mg/dL
  GLC: 188.8 mg/dL
  IP: 6.1 mg/dL
  K: 4.2 meq/L
  LDH: 70.8 IU/L
  Na: 143.6 meq/L
  PL: 148 mg/dL
  RALB: 2.9 g/dL
  TBIL: 0.082 mg/dL
  TC: 76 mg/dL
  TG: 67 mg/dL
  TP: 6.5 g/dL
  gamma-GTP: 2.4 IU/L
